Legend:
[1] = system: Daphnia magna; conditions: chronic/long-term; duration: 21 days; reproduction
[2] = system: Apis mellifera; conditions: acute; duration: 48 hours; oral; unspecified; mortality
[3] = system: Avena sativa; conditions: not reported; no effects
[4] = system: Canidae; conditions: chronic; duration: 52 weeks; oral; Dog Other; organ weight
[5] = system: Tagia sp.; conditions: acute; duration: 14 days; mortality
[6] = system: Anas platyrhynchos
[7] = system: Colinus virginianus; conditions: acute, oral, mortality
[8] = system: Lepomis macrochirus; conditions: acute; duration: 96 hours; mortality
[9] = system: Bibionidae; conditions: chronic/long-term; duration: 28 days; other
[10] = system: Rattus norvegicus
[11] = system: Oncorhynchus mykiss; conditions: chronic/long-term; duration: 95 days

SMILES: CC(COc1ccc(Oc2ccccc2)cc1)Oc1ccccn1 (centres undefined) [Pyriproxyfen]
- NOEC [1]: 1.5e-05 mg/L
- LD50 [2]: > 74 µg/piece
- LEL [3]: 8000 g/ha
- NOAEL [4]: 10 mg/kg-day
- LC50 [5]: > 1000 mg/kg
- LD50 ([6]; acute, oral, unspecified, mortality): > 1910 mg/kg
- NOEC ([6]; reproductive): 70.2 mg/kg-day
- LC50 ([7]; diet): > 863 mg/kg-day
- LD50 [7]: > 1910 mg/kg
- LC50 [8]: > 0.27 mg/L
- NOEC [9]: 0.01 mg/L
- LD50 ([10]; acute, oral, mortality): > 5000 mg/kg
- NOAEL ([10]; reproduction developmental, organ weight): 13.3 mg/kg-day
- NOEC [11]: 0.0043 mg/L
